From patent US20080269162A1, “Novel Medicaments for Anti-Retroviral Treatments” (priority 2006, published 2008)
Values joined by “and” are separate entries in the source; they are usually repeats but may differ in a detail not shown here. Equal entries are not always repeated.

Test system: RTMC virus (clade B), resistant to AZT
Assay: RT activity in supernatant and cell number of CEM cells infected by RTMC virus
Format: cell-based, HIV
Details: 0.1 μM, RMTC viral dilution 5 · 10^−4
Protocol: The cells were counted every three days and the cultures diluted with a view of culturing 0.5*10^6 cells/mL; the RT activity assay was done following a protocol comprising:
measurement of the radioactivity of the DNA synthesized, said radioactivity being proportional to the quantity of tritiated thymidine incorporated into said synthesized DNA, which itself is proportional to RT activity and thus to the number of viruses produced by replication.
The contents (1 mL) of each well was centrifuged for 5 minutes at 1500 r.p.m. (Jouan GR 422 centrifuge) and then the culture supernatant obtained was ultracentrifuged at 4° C., 95000 r.p.m. (Beckman TL100 ultracentrifuge) in order to obtain the viral pellet.
The viral pellet was then placed in a test tube containing 10 μL of NTE buffer to which 0.1% of triton was added, which releases the viral enzymes, particularly RT; the tube was then vortexed, covered with parafilm and held for 10 minutes at 4° C. and then frozen at −20° C.
As many test tubes containing this reaction mixture were prepared as there were samples to be tested. […]
The amount of radioactivity that was measured is proportional to the RT activity present and, consequently, to the number of viruses produced by replication. […]

Substance: 3′-azidothymidine [AZT]
- Number of cells per mL, D3 (day 3): 2.7 10^6 Cell/mL and 3.3 10^6 Cell/mL
- Number of cells per mL, D10 (day 10): 0.4 10^6 Cell/mL and 0.8 10^6 Cell/mL
